PubChem BioAssay AID328 (DTP/NCI, 2004)
Several values for one entry are separate records, joined by “and”; a condition that tells them apart may be missing. Equal entries are not always repeated. Toxic doses and inconclusive results are not listed.

Test system: BDF1 mice, P388 leukemia ip, median survival T/C
Assay: NCI In Vivo Anticancer Drug Screen. Data for tumor model P388 Leukemia (intraperitoneal) in B6D2F1 (BDF1) mice
Settings: endpoint: median survival time, higher = longer survival
Procedure, shortened: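 T/C = treated-group survival ÷ vehicle-control survival; tumour transplanted into mice before dosing.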

[1] = dose: 50.0 mg/kg/injection, schedule: Q04DX003 (ip), vehicle: saline with Tween-80
[2] = dose: 100.0 mg/kg/injection, schedule: Q04DX003 (ip), vehicle: saline with Tween-80
[3] = dose: 50.0 mg/kg/injection, schedule: Q01DX009 (ip), vehicle: saline with Tween-80
[4] = dose: 100.0 mg/kg/injection, schedule: Q01DX009 (ip), vehicle: saline with Tween-80
[5] = dose: 200.0 mg/kg/injection, schedule: Q01DX009 (ip), vehicle: saline with Tween-80
[6] = dose: 200.0 mg/kg/injection, schedule: Q04DX003 (ip), vehicle: saline with Tween-80
[7] = dose: 25.0 mg/kg/injection, schedule: Q01DX009 (ip), vehicle: Klucel (hydroxypropylcellulose) (HPC)

SMILES: CN(C)Cc1cccc(N)c1
- T/C (dose: 0.25 mg/kg/injection, schedule: Q01DX009 (ip), vehicle: water): 120 % of control
- T/C (dose: 0.5 mg/kg/injection, schedule: Q01DX009 (ip), vehicle: water): 111 % of control
- T/C (dose: 1.0 mg/kg/injection, schedule: Q01DX009 (ip), vehicle: water): 113 % of control
- T/C (dose: 2.0 mg/kg/injection, schedule: Q01DX009 (ip), vehicle: water): 120 % of control
- T/C (dose: 4.0 mg/kg/injection, schedule: Q01DX009 (ip), vehicle: water): 92 % of control
- T/C (dose: 12.5 mg/kg/injection, schedule: Q04DX003 (ip), vehicle: water): 100 % of control
- T/C (dose: 25.0 mg/kg/injection, schedule: Q04DX003 (ip), vehicle: water): 100 % of control
- T/C (dose: 50.0 mg/kg/injection, schedule: Q04DX003 (ip), vehicle: water): 91 % of control
- T/C (dose: 100.0 mg/kg/injection, schedule: Q04DX003 (ip), vehicle: water): 97 % of control

SMILES: COC(=O)/C(C#N)=C(\C)CCC=C(C)C
- T/C (dose: 25.0 mg/kg/injection, schedule: Q04DX003 (ip), vehicle: saline with Tween-80): 95 % of control
- T/C [1]: 105 % of control
- T/C [2]: 87 % of control

SMILES: COc1cc(NC(C)CCCN)c2ncccc2c1Oc1ccc(Cl)cc1 (configuration not stated)
- T/C [3]: 100 % of control

SMILES: Cc1nc2ccc3nc(N)nc(N)c3c2nc1C
- T/C (dose: 50.0 mg/kg/injection, schedule: Q01DX001 (ip), vehicle: saline with Tween-80): 104 % of control
- T/C (dose: 100.0 mg/kg/injection, schedule: Q01DX001 (ip), vehicle: saline with Tween-80): 101 % of control
- T/C (dose: 200.0 mg/kg/injection, schedule: Q01DX001 (ip), vehicle: saline with Tween-80): 111 % of control

SMILES: COC1/C=C/OC2(C)Oc3c(C)c(O)c4c(O)c(c(/C=N/NC5CCCCCCCCCCCCCC5)c(O)c4c3C2=O)NC(=O)/C(C)=C\C=C\C(C)C(O)C(C)C(O)C(C)C(OC(C)=O)C1C (configuration not stated)
- T/C [4]: 100 % of control
- T/C [2]: 100 % of control
- T/C [5]: 95 % of control
- T/C [6]: 90 % of control
- T/C (dose: 400.0 mg/kg/injection, schedule: Q01DX009 (ip), vehicle: saline with Tween-80): 95 % of control
- T/C (dose: 400.0 mg/kg/injection, schedule: Q04DX003 (ip), vehicle: saline with Tween-80): 90 % of control

SMILES: CC(C)(C)C(=O)CC(O)(C(F)(F)Cl)C(F)(F)Cl
- T/C [4]: 100 % of control
- T/C [5]: 100 % of control

SMILES: NC(=S)NCCO
- T/C (dose: 100.0 mg/kg/injection, schedule: Q01DX001 (ip), vehicle: saline): 104 % of control
- T/C (dose: 200.0 mg/kg/injection, schedule: Q01DX001 (ip), vehicle: saline): 95 % of control
- T/C (dose: 400.0 mg/kg/injection, schedule: Q01DX001 (ip), vehicle: saline): 100 % of control

SMILES: CC1(C)N=C(N)N=C(N)N1c1ccc(-c2ccccc2)cc1
- T/C [7]: 99 % of control
- T/C (dose: 50.0 mg/kg/injection, schedule: Q01DX009 (ip), vehicle: Klucel (hydroxypropylcellulose) (HPC)): 106 % of control

SMILES: Cc1c(OCc2ccccc2)cccc1[N+](=O)[O-]
- T/C (dose: 100.0 mg/kg/injection, schedule: Q01DX009 (ip), vehicle: other): 109 % of control
- T/C (dose: 100.0 mg/kg/injection, schedule: Q04DX003 (ip), vehicle: other): 113 % of control
- T/C (dose: 200.0 mg/kg/injection, schedule: Q01DX009 (ip), vehicle: other): 119 % of control
- T/C (dose: 200.0 mg/kg/injection, schedule: Q04DX003 (ip), vehicle: other): 100 % of control
- T/C (dose: 400.0 mg/kg/injection, schedule: Q01DX009 (ip), vehicle: other): 109 % of control
- T/C (dose: 400.0 mg/kg/injection, schedule: Q04DX003 (ip), vehicle: other): 109 % of control

SMILES: COc1cc(Cl)ccc1C
- T/C [3]: 100 % of control
- T/C [1]: 104 % of control
- T/C (dose: 88.0 mg/kg/injection, schedule: Q01DX009 (ip), vehicle: saline with Tween-80): 108 % of control and 114 % of control
- T/C [4]: 120 % of control
- T/C [2]: 113 % of control
- T/C (dose: 132.0 mg/kg/injection, schedule: Q01DX009 (ip), vehicle: saline with Tween-80): 108 % of control
- T/C [5]: 120 % of control and 123 % of control
- T/C [6]: 118 % of control
- T/C (dose: 300.0 mg/kg/injection, schedule: Q01DX009 (ip), vehicle: saline with Tween-80): 123 % of control

SMILES: CCC[CH2][Sn]1([CH2]CCC)[O]OC(c2ccc(C)cc2)[O]1 (configuration not stated)
- T/C (dose: 0.38 mg/kg/injection, schedule: Q01DX009 (ip), vehicle: saline with Tween-80): 114 % of control
- T/C (dose: 1.5 mg/kg/injection, schedule: Q01DX009 (ip), vehicle: saline with Tween-80): 117 % of control
- T/C (dose: 3.13 mg/kg/injection, schedule: Q01DX009 (ip), vehicle: saline with Tween-80): 123 % of control
- T/C (dose: 5.3 mg/kg/injection, schedule: Q01DX009 (ip), vehicle: saline with Tween-80): 86 % of control

SMILES: CC(O)CN1CNC(=S)NC1 (configuration not stated)
- T/C (dose: 50.0 mg/kg/injection, schedule: Q01DX009 (ip), vehicle: saline): 99 % of control
- T/C (dose: 100.0 mg/kg/injection, schedule: Q01DX009 (ip), vehicle: saline): 101 % of control
- T/C (dose: 200.0 mg/kg/injection, schedule: Q01DX009 (ip), vehicle: saline): 106 % of control

SMILES: O=S(=O)(O)O.[N-]=C(N)/N=C(\[NH-])N.[N-]=C(N)/N=C(\[NH-])N.[N-]=C(N)NC(=[N-])N.[Rh+3]
- T/C (dose: 6.25 mg/kg/injection, schedule: Q01DX009 (ip), vehicle: saline): 104 % of control
- T/C (dose: 12.5 mg/kg/injection, schedule: Q01DX009 (ip), vehicle: saline): 95 % of control
- T/C (dose: 12.5 mg/kg/injection, schedule: Q04DX003 (ip), vehicle: saline): 100 % of control
- T/C (dose: 25.0 mg/kg/injection, schedule: Q01DX009 (ip), vehicle: saline): 119 % of control
- T/C (dose: 25.0 mg/kg/injection, schedule: Q04DX003 (ip), vehicle: saline): 109 % of control
- T/C (dose: 50.0 mg/kg/injection, schedule: Q04DX003 (ip), vehicle: saline): 118 % of control

SMILES: Nc1nc2nc(N=Nc3ccc(Br)cc3)[nH]c2c(=O)[nH]1
- T/C (dose: 50.0 mg/kg/injection, schedule: Q01DX005 (ip), vehicle: saline with Tween-80): 98 % of control
- T/C (dose: 100.0 mg/kg/injection, schedule: Q01DX005 (ip), vehicle: saline with Tween-80): 97 % of control
- T/C (dose: 200.0 mg/kg/injection, schedule: Q01DX005 (ip), vehicle: saline with Tween-80): 100 % of control

SMILES: CCOC(=O)C(Cc1ccc(N(CCCl)CCCl)cc1)NC(=O)C(NC(C)=O)C(C)C (configuration not stated)
- T/C (dose: 5.0 mg/kg/injection, schedule: Q04DX003 (ip), vehicle: water): 109 % of control
- T/C (dose: 10.0 mg/kg/injection, schedule: Q04DX003 (ip), vehicle: water): 157 % of control
- T/C (dose: 20.0 mg/kg/injection, schedule: Q04DX003 (ip), vehicle: water): 223 % of control
- T/C (dose: 40.0 mg/kg/injection, schedule: Q04DX003 (ip), vehicle: water): 264 % of control
- T/C (dose: 80.0 mg/kg/injection, schedule: Q04DX003 (ip), vehicle: water): 150 % of control

SMILES: BrCc1ccc(CBr)c(Br)c1
- T/C (dose: 6.0 mg/kg/injection, schedule: Q01DX009 (ip), vehicle: Klucel (hydroxypropylcellulose) (HPC)): 89 % of control
- T/C (dose: 6.25 mg/kg/injection, schedule: Q04DX003 (ip), vehicle: Klucel (hydroxypropylcellulose) (HPC)): 92 % of control
- T/C (dose: 12.0 mg/kg/injection, schedule: Q01DX009 (ip), vehicle: Klucel (hydroxypropylcellulose) (HPC)): 103 % of control
- T/C (dose: 12.5 mg/kg/injection, schedule: Q04DX003 (ip), vehicle: Klucel (hydroxypropylcellulose) (HPC)): 96 % of control
- T/C [7]: 96 % of control
- T/C (dose: 25.0 mg/kg/injection, schedule: Q04DX003 (ip), vehicle: Klucel (hydroxypropylcellulose) (HPC)): 100 % of control

SMILES: CC(=O)N(C)c1ccc(Nc2cc(C)[nH]c3ccc4ncnc4c23)cc1
- T/C (dose: 50.0 mg/kg/injection, schedule: Q04DX002 (ip), vehicle: saline): 158 % of control
- T/C (dose: 100.0 mg/kg/injection, schedule: Q04DX002 (ip), vehicle: saline with Tween-80): 181 % of control
- T/C (dose: 100.0 mg/kg/injection, schedule: Q04DX002 (ip), vehicle: saline): 181 % of control

SMILES: CSC(=S)NNC(=O)c1ccc([N+](=O)[O-])cc1
- T/C (dose: 3.13 mg/kg/injection, schedule: Q04DX003 (ip), vehicle: saline sonified): 90 % of control
- T/C (dose: 6.25 mg/kg/injection, schedule: Q04DX003 (ip), vehicle: saline sonified): 100 % of control
- T/C (dose: 12.5 mg/kg/injection, schedule: Q04DX003 (ip), vehicle: saline sonified): 95 % of control
